Test results taken from US20120197004A1, “NOVEL ANTI-MICROBIAL PEPTIDOMIMETIC COMPOUNDS AND METHODS TO CALCULATE ANTI-MICROBIAL ACTIVITY” (priority 2006, published 2012).
Converted amounts (≈) assume the structure as drawn. Read-outs that look alike come from different tables or passages of the source. Where a SMILES comes first, the peptide text is derived from it. [ ]: non-standard residue; d: D form. ξ: configuration not given here. Oic = O=C(O)[C@@H]1C[C@@H]2CCCC[C@@H]2N1; Tic = O=C(O)[C@@H]1Cc2ccccc2CN1; ξTic = O=C(O)C1Cc2ccccc2CN1; ξOic = O=C(O)C1CC2CCCCC2N1; βAla = NCCC(=O)O

What was measured:
[1] = Metabolic stability, monkey liver microsomes
[2] = Metabolic stability, human liver microsomes; conditions: for % remaining at time T, Human Liver: 0.5 mg/mL microsomes
[3] = system: B. melitensis 16M
[4] = Maximum tolerated dose in mouse model; assay type: in vivo; conditions: IP, dosed daily day 1-6
Protocol: Maximum Tolerated Dose: Six compounds were evaluated in an in vivo mouse model to determine the maximum tolerated dose for each compound by BIOCON, Inc. using the following protocol. For each compound 3 dose concentrations (1/5/25 mg/kg or 5/25/125 mg/kg) were administered IP, 1-2 times per day as split doses. Day 0 weigh the animals, day 1-6 dose daily and observe animals, day 7 weigh, euthanasia followed by necrotize to examine abdominal cavity.

[5] = Metabolic stability, dog liver microsomes
[6] = Metabolic stability, rat liver microsomes
[7] = system: red blood cells; test: Hemolytic studies
[8] = system: Salmonella typhimurium (ATCC 13311); conditions: for MIC Salmonella typhimurium: ATCC 13311
[9] = system: Mycobacterium ranae (ATCC 110)
[10] = Metabolic stability, mouse liver microsomes
[11] = system: Staphylococcus aureus Methicillin/Gentamicin/Tetracycline Resistant (ATCC 33592); conditions: for Minimum Inhibitory Concentration Staphylococcus aureus ME/GM/TC resistant: in vitro MIC, tested at 100, 30, 10, 3, 1, 0.3 and 0.1 μM in 1% DMSO
[12] = system: F. tularensis SCHU-S4
[13] = system: Bacillus subtillis (ATCC 43223); conditions: for MIC Bacillus Subtillis: ATCC 43223
[14] = system: Plasmodium falciparum W2 (CDC Indochina III chloroquine, quinine, pyrimethamine and sulfadoxine-resistant)
[15] = system: Plasmodium falciparum D6 (CDC Sierra Leone, mefloquine resistant)
[16] = in vitro; conditions: rat, microsomes, pH 7.4
[17] = in vitro; conditions: dog, microsomes, pH 7.4
[18] = in vitro; conditions: mouse, microsomes, pH 7.4
[19] = in vitro; conditions: monkey, microsomes, pH 7.4
[20] = system: red blood cells
[21] = in vitro; conditions: human, microsomes, pH 7.4
[22] = liver microsomes, 1 μM, T = 60 min
[23] = Minimal Inhibitory Concentration, tested at 100-0.1 in 1% DMSO

CC(=O)NCCC(=O)N[C@@H](Cc1ccccc1)C(=O)N1Cc2ccccc2CC1C(=O)N1C(C(=O)NCCC(=O)N[C@@H](CCCCN)C(=O)N2Cc3ccccc3CC2C(=O)N2C(C(=O)NCCC(=O)N[C@@H](Cc3ccccc3)C(=O)N3Cc4ccccc4CC3C(=O)N3C(C(=O)NCCC(=O)N[C@@H](CCCCN)C(=O)N4Cc5ccccc5CC4C(=O)N[C@@H](CCCCN)C(=O)N[C@@H](CCCCN)C(=O)N[C@@H](CCCCN)C(=O)N[C@@H](CCCCN)C(N)=O)CC4CCCCC43)CC3CCCCC32)CC2CCCCC21 (stereo partly drawn) [FKAB-1Gd1, Ac-βAla-F-Tic-Oic-βAla-K-Tic-Oic-βAla-F-Tic-Oic-βAla-K-Tic-KKKK-CONH2] (Ac-[βAla]F[ξTic][ξOic][βAla]K[ξTic][ξOic][βAla]F[ξTic][ξOic][βAla]K[ξTic]KKKK-NH2)
metabolic stability T = 60 min monkey [1, 22]: high
remaining at 0.25 h, 1 μM ([1]; monkey, microsomes, pH 7.4): 90%
remaining at 0.5 h, 1 μM ([1]; monkey, microsomes, pH 7.4): 87%
remaining at 1 h, 1 μM ([1]; monkey, microsomes, pH 7.4): 89%
remaining at 0.25 h, 1 μM ([2]; human, microsomes, pH 7.4): 94%
metabolic stability T = 60 min human [2, 22]: high
% remaining at time T, Human Liver ([2]; second human column (T = 30 min, head not given), 1 μM): 99%
% remaining at time T, Human Liver ([2]; third human column (T = 60 min, head not given), 1 μM): 97%
Minimum Inhibitory Concentration B. melitensis 16M [3]: >500 µg/mL
Maximum Tolerated Dose/Toxicity 125 mg/kg ([4]; 125 mg/kg): 5 out 5 animals died
% remaining, Dog Liver T = 15 ([5]; T = 15 min, 1 μM, 0.5 mg/mL microsomes): 84%
remaining at 0.5 h, 1 μM ([5]; dog, microsomes, pH 7.4): 78%
remaining at 1 h, 1 μM ([5]; dog, microsomes, pH 7.4): 71%
metabolic stability T = 60 min dog [5, 22]: Moderate
metabolic stability T = 60 min rat [6, 22]: high
remaining at 0.25 h, 1 μM ([6]; rat, microsomes, pH 7.4): 82%
remaining at 0.5 h, 1 μM ([6]; rat, microsomes, pH 7.4): 79%
remaining at 1 h, 1 μM ([6]; rat, microsomes, pH 7.4): 92%
% hemolysis 100/25 μM (first value) ([7]; 100 μM): 24.4%/
MIC Salmonella typhimurium [8]: 0.01 mM (≈ 0.025 mg/mL)
MIC Mycobacterium ranae ([9]; ATCC 110): 0.001 mM (≈ 0.0025 mg/mL)
Minimum Inhibitory Concentration Mycobacterium ranae ([9]; ATCC 110): 1 µM
metabolic stability T = 60 min mouse [10, 22]: moderate
remaining at 0.25 h, 1 μM ([10]; mouse, microsomes, pH 7.4): 90%
remaining at 0.5 h, 1 μM ([10]; mouse, microsomes, pH 7.4): 64%
remaining at 1 h, 1 μM ([10]; mouse, microsomes, pH 7.4): 53%
MIC Staphylococcus aureus ME/GM/TC resistant ([11]; ATCC 33592): 0.01 mM (≈ 0.025 mg/mL)
Minimum Inhibitory Concentration F. tularensis SCHU-S4 [12]: 500 µg/mL
MIC Bacillus Subtillis [13]: 0.001 mM (≈ 0.0025 mg/mL)

CC(C)C[C@H](NC(=O)CNC(=O)[C@H](CCCCN)NC(=O)CN)C(=O)N1Cc2ccccc2C[C@H]1C(=O)N1[C@H](C(=O)NCC(=O)N[C@@H](CCCNC(=N)N)C(=O)N2Cc3ccccc3C[C@H]2C(=O)N2[C@H](C(=O)NCC(=O)N[C@@H](Cc3ccccc3)C(=O)N3Cc4ccccc4C[C@H]3C(=O)N3[C@H](C(=O)NCC(=O)N[C@@H](CCCNC(=N)N)C(=O)N4Cc5ccccc5C[C@H]4C(=O)N4[C@H](C(=O)NCC(=O)N[C@@H](Cc5ccccc5)C(=O)N5Cc6ccccc6C[C@H]5C(=O)N5[C@H](C(=O)NCC(=O)N[C@@H](CCCNC(=N)N)C(=O)N6Cc7ccccc7C[C@H]6C(=O)N6[C@H](C(=O)NCC(=O)N[C@@H](CCCCN)C(=O)N[C@@H](CCCNC(=N)N)C(N)=O)C[C@@H]7CCCC[C@@H]76)C[C@@H]6CCCC[C@@H]65)C[C@@H]5CCCC[C@@H]54)C[C@@H]4CCCC[C@@H]43)C[C@@H]3CCCC[C@@H]32)C[C@@H]2CCCC[C@@H]21 [WRFK-2, NH2-GKGL-Tic-Oic-GR-Tic-Oic-GF-Tic-Oic-GR-Tic-Oic-GF-Tic-Oic-GR-Tic-Oic-GKR-CONH2] (H-GKGL[Tic][Oic]GR[Tic][Oic]GF[Tic][Oic]GR[Tic][Oic]GF[Tic][Oic]GR[Tic][Oic]GKR-NH2)
IC50 * W2 [14]: 6.9 µg/mL (≈ 1.9 µM)
% hemolysis / Hemolytic activity ([7]; concentration not given): 100%
p(MIC) Salmonella typhimurium ([8]; -log(MIC)): 4.00
MIC Salmonella typhimurium [8]: 0.1 mM (≈ 0.362 mg/mL)
Actual Bioactivity [9]: 0.000
MIC Mycobacterium ranae [9]: 1000 mM (≈ 3620 mg/mL)
Minimum Inhibitory Concentration Mycobacterium ranae [9]: not active
p(MIC) Staphylococcus aureus ME/GM/TC resistant ([11]; -log(MIC)): 5.00
MIC Staphylococcus aureus ME/GM/TC resistant [11, 23]: 0.01 mM (≈ 0.0362 mg/mL)
Minimum Inhibitory Concentration Staphylococcus aureus ME/GM/TC resistant [11]: 10 µM
Actual Bioactivity ([11]; p(MIC) used in Staphylococcus aureus QSAR model): 5.000
IC50 * D6 [15]: 7.2 µg/mL (≈ 1.99 µM)
p(MIC) Bacillus Subtillis ([13]; -log(MIC)): 6.00
MIC Bacillus Subtillis [13]: 0.001 mM (≈ 0.00362 mg/mL)

CC(C)C[C@H](NC(=O)[C@@H](N)CCCCN)C(=O)N1Cc2ccccc2CC1C(=O)N1C(C(=O)NCC(=O)N[C@@H](CCCCN)C(=O)N2Cc3ccccc3CC2C(=O)N2C(C(=O)NCC(=O)N[C@@H](Cc3ccccc3)C(=O)N3Cc4ccccc4CC3C(=O)N3C(C(=O)NCC(=O)N[C@@H](CCCCN)C(=O)N4Cc5ccccc5CC4C(=O)N[C@@H](CCCCN)C(=O)N[C@@H](CCCCN)C(=O)N[C@@H](CCCCN)C(=O)N[C@@H](CCCCN)C(N)=O)CC4CCCCC43)CC3CCCCC32)CC2CCCCC21 (stereo partly drawn) [FKAB-1Gb, NH2--KL-Tic-Oic-GK-Tic-Oic-GF-Tic-Oic-GK-Tic-KKKK-CONH2] (H-KL[ξTic][ξOic]GK[ξTic][ξOic]GF[ξTic][ξOic]GK[ξTic]KKKK-NH2)
remaining at 0.25 h, 1 μM [16]: 84%
remaining at 0.5 h, 1 μM [16]: 84%
remaining at 1 h, 1 μM [16]: 91%
Maximum Tolerated Dose/Toxicity 1 mg/kg [4]: no observed toxicity
remaining at 0.5 h, 1 μM [17]: 99%
remaining at 1 h, 1 μM [17]: 81%
remaining at 0.25 h, 1 μM [18]: 87%
remaining at 0.5 h, 1 μM [18]: 73%
remaining at 1 h, 1 μM [18]: 70%
MIC Salmonella typhimurium [8]: 0.003 mM (≈ 0.00731 mg/mL)
MIC Mycobacterium ranae ([9]; ATCC 110): 0.003 mM (≈ 0.00731 mg/mL)
Minimum Inhibitory Concentration Mycobacterium ranae ([9]; ATCC 110): 3 µM
MIC Staphylococcus aureus ME/GM/TC resistant [11, 23]: 0.03 mM (≈ 0.0731 mg/mL)
Minimum Inhibitory Concentration Staphylococcus aureus ME/GM/TC resistant [11]: 30 µM
remaining at 0.25 h, 1 μM [19]: 86%
remaining at 0.5 h, 1 μM [19]: 87%
remaining at 1 h, 1 μM [19]: 97%
% hemolysis 100/25 μM (first value) [20]: 43.6%/
% hemolysis 100/25 μM (second value) [20]: 24.9%
MIC Bacillus Subtillis [13]: 0.001 mM (≈ 0.00244 mg/mL)
remaining at 0.25 h, 1 μM [21]: 98%

CC(=O)NCC(=O)N1Cc2ccccc2CC1C(=O)N1C(C(=O)N[C@@H](CCCCN)C(=O)N2Cc3ccccc3CC2C(=O)N2C(C(=O)NCC(=O)N3Cc4ccccc4CC3C(=O)N3C(C(=O)N[C@@H](CCCCN)C(=O)N4Cc5ccccc5CC4C(=O)N[C@@H](CCCCN)C(=O)N[C@@H](CCCCN)C(=O)N[C@@H](CCCCN)C(=O)N[C@@H](CCCCN)C(N)=O)CC4CCCCC43)CC3CCCCC32)CC2CCCCC21 (stereo partly drawn) [FKAB-1Ge, Ac-G-Tic-Oic-K-Tic-Oic-G-Tic-Oic-K-Tic-KKKK-CONH2] (Ac-G[ξTic][ξOic]K[ξTic][ξOic]G[ξTic][ξOic]K[ξTic]KKKK-NH2)
remaining at 0.25 h, 1 μM [16]: 69%
remaining at 0.5 h, 1 μM [16]: 73%
remaining at 1 h, 1 μM [16]: 95%
Maximum Tolerated Dose/Toxicity 1 mg/kg [4]: no observed toxicity
remaining at 0.5 h, 1 μM [17]: 43%
remaining at 1 h, 1 μM [17]: 54%
remaining at 0.25 h, 1 μM [18]: 85%
remaining at 0.5 h, 1 μM [18]: 20%
remaining at 1 h, 1 μM [18]: 11%
MIC Salmonella typhimurium [8]: 0.01 mM (≈ 0.0203 mg/mL)
MIC Mycobacterium ranae ([9]; ATCC 110): 0.003 mM (≈ 0.0061 mg/mL)
MIC Staphylococcus aureus ME/GM/TC resistant [11, 23]: 0.01 mM (≈ 0.0203 mg/mL)
Minimum Inhibitory Concentration Staphylococcus aureus ME/GM/TC resistant [11]: 10 µM
remaining at 0.25 h, 1 μM [19]: 56%
remaining at 0.5 h, 1 μM [19]: 73%
% hemolysis 100/25 μM (first value) [20]: 26.7%/
% hemolysis 100/25 μM (second value) [20]: 9.2%
MIC Bacillus Subtillis [13]: 0.001 mM (≈ 0.00203 mg/mL)
remaining at 0.25 h, 1 μM [21]: 114%
